Data as given in patent US12133530B2, “Herbicidal mixtures comprising L-glufosinate or its salt and at least one VLCFA inhibitor” (BASF SE, priority 2017, dated 2024).

Experiments:
[1] = tested on: ABUTH (Abutilon theophrasti); experiment: Post-emergence greenhouse pot test, herbicidal activity (scale 0 to 100); format: in vivo
Protocol: (§1) However, the weed control afforded by the compounds, mixtures or compositions is not limited to these species. The analysis of synergism or antagonism between the mixtures or compositions was determined using Colby's equation.
(§2) The culture containers used were plastic flowerpots containing loamy sand with approximately 3.0% of humus as the substrate. The seeds of the test plants were sown separately for each species and/or resistant biotype. For the pre-emergence treatment, the active ingredients, which had been suspended or emulsified in water, were applied directly after sowing by means of finely distributing nozzles. The containers were irrigated gently to promote germination and growth and subsequently covered with transparent plastic hoods until the plants had rooted. This cover caused uniform germination of the test plants, unless this had been impaired by the active ingredients. For the post-emergence treatment, the test plants were first grown to a height of 3 to 15 cm, depending on the plant habit, and only then treated with the active ingredients which had been suspended or emulsified in water. For this purpose, the test plants were either sown directly and grown in the same containers, or they were first grown separately as seedlings and transplanted into the test containers a few days prior to treatment. Depending on the species, the plants were kept at 10-25° C. or 20-35° C., respectively. The test period extended to 20 days after treatment. During this time, the plants were tended, and their response to the individual treatments was evaluated. The evaluation was carried out by using a scale from 0 to 100. 100 means no emergence of the plants or complete destruction of at least the above-ground parts, and 0 means no damage, or normal course of growth. Data shown are the mean of two replications.

AVEFA (Avena fatua) = experiment: as above; format: in vivo; conditions: scale 0-100
Protocol: as §1, §2

CP(=O)(O)CC[C@H](N)C(=O)O [L-Glufosinate, (2S)-2-amino-4-[hydroxy(methyl)phosphinoyl]butyric acid]
Herbicidal activity against ABUTH, Found ([1]; L-Glufosinate 75 g ai/ha alone, scale 0-100): 0
Herbicidal activity against ABUTH, Found ([1]; L-Glufosinate 150 g ai/ha alone, scale 0-100): 55
Herbicidal activity against ABUTH, Found ([1]; L-Glufosinate 200 g ai/ha alone, scale 0-100, mean of two replications): 65
Herbicidal activity against AVEFA, Found (AVEFA (Avena fatua); L-Glufosinate 75 g ai/ha alone): 0
Herbicidal activity against AVEFA, Found (AVEFA (Avena fatua); L-Glufosinate 150 g ai/ha alone): 0

CCOCCN(C(=O)CCl)C(=C(C)C)c1ccccc1 [Pethoxamid, pethoxamid]
Herbicidal activity against ABUTH, Found ([1]; Pethoxamid 50 g ai/ha alone, scale 0-100): 0
Herbicidal activity against ABUTH, Found ([1]; Pethoxamid 100 g ai/ha alone, scale 0-100): 0
Herbicidal activity against AVEFA, Found (AVEFA (Avena fatua); Pethoxamid 50 g ai/ha alone): 0
Herbicidal activity against AVEFA, Found (AVEFA (Avena fatua); Pethoxamid 100 g ai/ha alone): 0

Cn1nc(C(F)(F)F)c(CS(=O)(=O)C2=NOC(C)(C)C2)c1OC(F)F [Pyroxasulfone, pyroxasulfone]
Herbicidal activity against ABUTH, Found ([1]; Pyroxasulfone 25 g ai/ha alone, scale 0-100): 40
Herbicidal activity against ABUTH, Found ([1]; Pyroxasulfone 50 g ai/ha alone, scale 0-100): 70
